From patent publication US7625863B2, “Treatment of patients with dysfunctional cardiac sodium channels” (The MetroHealth System, priority 2006, dated 2009)
Where “and” joins values, the source holds several entries; their conditions need not be identical. Identical values can stand only once. Entries after “also recorded” stand apart in the source; their conditions may differ. Where no end group is shown, it is not given here.

Tests used:
C373Y-SCN5A channels = biological target: T1, C373Y-SCN5A channels (Homo sapiens, UniProt Q14524, C373Y); type: cell-based
T1 construct: expressed in transfected cells; host or cells: HEK293
Procedure: (§1) Expression of hNav1.5 in HEK293 Cells: Transient transfections of SCN5A expressed in GFP-IRES were performed in human embryonic kidney cells (HEK293) with the Polyfect transfection kit (Qiagen, Valencia, Calif.) according to the manufacturer's protocol for 24 hours.
(§2) Electrophysiology: Macroscopic sodium currents from transfected cells were recorded using the whole-cell configuration of the patch-clamp technique as previously described. (Deschenes I, et al., Cardiovasc Res. 2000; 46:55-65). Cells that emitted green fluorescence and expressed INa-like currents were considered to express mutants and/or polymorphisms of hNav1.5. Patch electrodes were made from 8161 Corning glass (Dow-Corning, Midland, Mich.). Low-resistance electrodes (<2 MΩ) were used, and a routine-series resistance compensation of an Axopatch 200A was performed to values >80% to minimize the voltage-clamp errors. Voltage-clamp command pulses were generated by a microcomputer using PCLAMP software version 9.02 (Axon Instruments, Foster City, Calif.). To stabilize the current, experiments were performed 10 minutes after entering whole-cell configuration. Membrane currents were filtered at 5 kHz and digitized with 12-bit resolution. […]
(§3) Voltage dependence of steady-state inactivation was determined by 500-ms prepulses ranging from −140 to −30 mV. […]

[1] = system: WT-SCN5A+C373Y-SCN5A channels; type: cell-based, human
Procedure: as §1, §2, §3

[2] = biological target: T2, H558R-SCN5A+R282H-C373Y-SCN5A channels (Homo sapiens, UniProt Q14524, H558R); assay: MTSET block of whole-cell sodium current, H558R-SCN5A+R282H-C373Y-SCN5A; type: cell-based; details: 1 μmol/L MTSET, after 10 minutes, 1 μg + 1 μg, HEK293
T2 construct: expressed in transfected cells; host or cells: HEK293
Procedure: as §1, §2, §3

[3] = system: hNav1.5 protein fragments centered on 558 fused to YFP; assay: FRET between hNav1.5 protein fragments centered on 558 fused to CFP or YFP; type: cell-based, human; details: coexpressed with homotypic YFP fragment
Description: (§4) The beam splitter was the Chroma 86002v2bs multiband beam splitter for ECFP and EYFP (Rockingham, Vt.).
(§5) The corrected FRET ratio was defined as FRETc/IDD.

WT channels (Nav1.5) = biological target: T3, WT channels (Nav1.5) (Homo sapiens, UniProt Q14524); assay: Whole cell patch clamp of sodium currents in HEK293 cells co-expressing WT channels and polymorphic peptide; type: cell-based
T3 construct: expressed in transfected cells; host or cells: HEK293
Description: Creation of Channel Fragments: Channel fragments were created by amplifying a small piece of either the wild type or the H558R polymorphic channel. These pieces were ligated into either the pcDNA3 vector or the pECFP-N3 vector (BD Biosciences Clonetech). The sequences for the fragments are: Wild Type 20 amino acid-[…] (SEQ ID NO: 10), Polymorphic 40 amino acid-[…] (SEQ ID NO: 4), and polymorphic 20 amino acid-[…] (SEQ ID NO: 3).
Expression of Nav1.5 and Fragments in HEK293 Cells: Transient transfection of Nav1.5 and Nav1.5 fragments into human embryonic kidney (HEK293) cells was accomplished using the Polyfect transfection kit (Qiagen, Valencia, Calif.) according to the manufacturer's protocol for 24 hours. When channels were expressed alone, […] of channel cDNA was used. For co-transfections, 1 μg of channel cDNA and 1 μg of fragment cDNA were combined.
Electrophysiology: Macroscopic sodium currents from transfected cells were recorded using the whole cell configuration of the patch clamp technique as previously described (Deschenes, I., et al., 2000 Cardiovasc. Res. 46: 55-65). Cells that emitted green fluorescence were considered successfully transfected. Patch electrodes were made from 1.5 mm thin walled glass capillaries (World Precision Instruments, Sarasota, Fla.). Low resistance electrodes (<2MΩ) were used, and a routine series resistance compensation of an Axopatch 200A was preformed to values >80% to minimize voltage clamp errors. Voltage clamp command pulses were generated by a microcomputer using PCLAMP software version 9.02 (Axon Instruments, Foster City, Calif.). To allow currents to stabilize, experiments were performed 10 minutes after entering whole cell configuration. Membrane currents were filtered at 5 kHZ and digitized with 12-bit resolution. The internal solution contained (in mmol/L) NaCl 35, CsF 105, EGTA 10, and Cs-HEPES 10 adjusted to pH7.4. […]
Whole cell sodium current densities were measured by dividing the peak current obtained from stepping in 10 mV intervals from −80 to 30 mV from the holding potential of −120 mV by the cell capacitance. Cell capacitance was determined by integrating the area under the capacitive transient of a pulse from −80 mV to −70 mV. […]
Voltage dependence of steady state inactivation was determined by 500 ms prepulses ranging from −140 to −30 mV (FIG. 7B inset). […]
Conductance was calculated from peak current obtained by holding the resting membrane potential at −120 mV and stepping in 10 mV intervals from −80 mV to 20 mV according to the equation: G=I/(Vm−Vrec)
The conductance was also fit to a Boltzmann distribution. Time constant of inactivation was measured by fitting individual current traces from the peak current to the end of the pulse with a single exponential: I(t)=A*exp(−t/τ)

YFP-1022 = assay: FRET folding study of non-mutated channel construct in HEK293 cells; type: cell-based, human; details: non-mutated YFP-1022 co-expressed with peptide
Description: Image Analysis and Calculation of Fluorescence Resonance Energy Transfer Ratios: Images were acquired with and Olympus IX71 fluorescent microscope that was fitted with a Hamamatsu ORCA-ER charge coupled device (12 bit) and controlled by the SLIDEBOOK software package from Intelligent Imaging Innovations (Denver, Colo.). Filter cube specifications for the fluorescent channels were as follows for excitation and emission, respectively: enhanced cyan fluorescent protein (CFP), 430±25 and 470±30 nm; enhanced yellow fluorescent protein (YFP), 500±20 and 535±30 nm, and fluorescence resonance energy transfer (FRET), 430±25 and 535±30 nm.
Image analysis involved three basic operations: subtraction of background autofluorescence and blurred light, quantification of fluorescence intensity, and calculation of a corrected FRET (FRETc) using the following equation: FRETc=(IDA−aIAA−dIDD)/IDD,
Where IDA is the fluorescence intensity of the cell measured from the FRET filter set and IDD and IAA are the fluorescent intensities of the same cell measured from the CFP (donor) and YFP (acceptor) filter sets, respectively. The cross-talk coefficients, a and d, are considered constant and a property of our microscope's filter sets, with a=0.03 and d=0.63. The corrected FRET ratio (FRETc) includes normalization to IDD to correct for variances in protein expression from cell to cell. […]

[4] = biological target: T4, hNav1.5 protein fragments centered on 558 fused to YFP (Homo sapiens, UniProt Q14524); assay: FRET between hNav1.5 protein fragments centered on 558 fused to CFP or YFP; type: cell-based; details: coexpressed with heterotypic H558-YFPf, internalized compartments
T4 construct: Fragments centered on 558 (40 amino acids) were fused to either CFP or YFP; expressed in transfected cells
Description: as §4, §5

[5] = WT channels treated with polymorphic peptide, HEK293

## C[N+](C)(C)CCSS(C)(=O)=O.[Br-] [MTSET, [2-(trimethylammonium)ethyl]methanethiosulfonate bromide]
C373Y-SCN5A channels
  decrease of peak current density: does not significantly decrease peak current densities; also recorded: does not block
[1]
  decrease of whole-cell sodium current: 42.6±9.5% and 50%
[2]
  reduction of whole-cell sodium current: 48.1±10.0% and 50%

## H558-CFPf: hNav1.5 fragment centered on 558 (40 amino acids) with H558, fused to CFP (GSEADFADDENSTAGESESHHTSLLVPWPLRRTSAQGQPS; also: fused to CFP (carrier left off))
[3]
  FRETc: 0.01±0.01

## GSEADFADDENSTAGESESHRTSLLVPWPLRRTSAQGQPS [R558-40aa, 40 amino acid fragment of Nav1.5 containing the H558R polymorphism, expressed from cDNA]
WT channels (Nav1.5); HEK293 cells, WT channels co-expressed with the 40 amino acid fragment, WT alone −337.7±105.8
  current density: −474.1±125.9 pA/pF
WT channels (Nav1.5); [5]
  Conductance (V1/2): −40.2 ± 3.3 mV
  Steady State Inactivation (V1/2): −90.0 ± 1.6 mV
WT channels (Nav1.5); WT channels with peptide, FIG. 7D
  Time Constant of Inactivation compared to WT: behaved similarly to WT
YFP-1022
  FRETc compared with YFP-1022 alone: similar

## R558-CFPf: hNav1.5 fragment centered on 558 (40 amino acids) with R558, fused to CFP (GSEADFADDENSTAGESESHRTSLLVPWPLRRTSAQGQPS; also: fused to CFP (carrier left off))
[4]
  FRETc: 0.04±0.02
[3]
  FRETc: 0.01±0.01

## NSTAGESESHRTSLLVPWPL [R558-20aa, 20 amino acid fragment of Nav1.5 containing the H558R polymorphism, expressed from cDNA]
YFP-1022
  FRETc compared with YFP-1022 alone: similar
